Data as given in US20080081021A1, “Manganese-enhanced magnetic resonance imaging of neurons using electrical stimulation” (priority 2006, published 2008).
Like-named read-outs stand apart in the source and are kept apart here.

How the values were obtained:
cortical spinal tract = settings: 24 hours after injection
Experimental: (§1) The experiments were conducted on twelve Sprague-Dawley rats weighing between 300 and 350 g under a protocol approved by the University of Kansas Medical Center Institutional Animal Care and Use Committee. Six rats were studied without electrical stimulation in the cortex and served as the control group. The remaining six rats formed the stimulation group.
The syringe was mounted on a micropositioner attached to a stereotaxic frame. The tip of the glass pipette was lowered perpendicular to the brain surface at the center of the first burr hole and inserted into the cortex through the exposed dura one millimeter below the pial surface. […]
To eliminate this problem, the burr holes in the skull of the rat from the stimulation group were first carefully drained of fluid. […] Once threshold was determined, stimulation was applied at approximately twice the threshold for 90 minutes. […]
The animals were anesthetized using spontaneous inhalation of 4% isoflurane for induction, followed by a mixture of 1.5% isoflurane, 30% oxygen, and air delivered through a nose mask. […] While in the scanner, the physiological condition of the rat was monitored using ECG, respiratory and temperature probes that were connected to an MR-compatible small animal monitoring and gating system (Model 1025, SA Instruments, Inc., Stony Brook, N.Y.). […]

[1] = system: rat spinal cord (gray matter, white matter, cortical spinal tract); settings: for *T1CST: cortical spinal tract in spinal cord; for *T1CST / T1GM / T1WM: 1 M MnCl2 0.2 μL bilateral intracortical, 9.4 T; for T1GM: gray matter of spinal cord, mean±SD, four rats; for T1WM: white matter of spinal cord
Experimental: as §1
The syringe was mounted on a micropositioner attached to a stereotaxic frame. The tip of the glass pipette was lowered perpendicular to the brain surface at the center of the first burr hole and inserted into the cortex through the exposed dura one millimeter below the pial surface. The syringe was emptied slowly to deliver 0.2 μL of the solution over a period of five minutes. To prevent backflow of solution, the pipette was left in place for another five minutes prior to withdrawal. This procedure was repeated for the contralateral motor area through the second burr hole.
To eliminate this problem, the burr holes in the skull of the rat from the stimulation group were first carefully drained of fluid. Electrical stimulation was then applied through a 1 mm diameter stainless steel electrode with the titanium screw serving as reference. The electrode was connected to a DS7 Digitimer constant current stimulator (Digitimer Ltd., Hertfordshire, England) and lowered through the first burr hole on the same side as the screw until it touched to dura. A Grass S48 stimulator (Grass Medical Instruments, Quincy, Mass.) generated the stimulus pulse sequence used to externally trigger the constant current stimulator. Trains of biphasic stimuli (each phase 0.2 ms, negative first) were applied at 100 Hz for an “on” period of 5 seconds followed by an “off” period of 5 seconds. […] Once threshold was determined, stimulation was applied at approximately twice the threshold for 90 minutes. If the strength of the evoked movement declined noticeably, frequency and current values were increased to maintain a constant motor response. These procedures were repeated for the opposite cortex through a second burr hole. With these settings, the total stimulation time was 180 minutes, 90 minutes for each side of the cortex. Immediately after stimulation, the electrodes were removed, and the skin was closed tightly with suture. The animal was then left to recover in its cage.
The animals were anesthetized using spontaneous inhalation of 4% isoflurane for induction, followed by a mixture of 1.5% isoflurane, 30% oxygen, and air delivered through a nose mask. The rat's head was stabilized on a Plexigas holder and positioned into a 6 cm inner diameter volume coil for MRI scanning on a 9.4 T horizontal Varian scanner (Varian Inc., Palo Alto, Calif.). While in the scanner, the physiological condition of the rat was monitored using ECG, respiratory and temperature probes that were connected to an MR-compatible small animal monitoring and gating system (Model 1025, SA Instruments, Inc., Stony Brook, N.Y.). The rat's temperature was kept at about 37° C. by circulating warm air with 40% humidity using a 5 cm diameter plastic tube fitted to the back door of the magnet bore.
The resulting data set consisted of axial images acquired independently at eight different TR values: 50, 100, 250, 500, 750, 2000, 3500, and 6000 ms with averages=10, 6, 6, 2, 2, 2, 2 and 2, respectively, and TE=12 ms. The other acquisition parameters were image matrix=128×128, field-of-view (FOV)=23×23 mm^2 and slice thickness=4 mm. The acquired data were analyzed quantitatively to produce a parametric T1 map of the spinal cord by following the procedures described previously in Bilgen et al., Ex vivo magnetic resonance imaging of rat spinal cord at 9.4 T, Magn. Reson. Imaging 23:601-605 (2005).
T1-maps were produced for four rats from each of the stimulated and control groups.

[2] = control rats without electrical stimulation

manganese chloride
manganese enhancement of the cortical spinal tract (cortical spinal tract; non-stimulated rat): fades away as the cortical spinal tract approaches the spinal cord
labeling of the cortical spinal tract in the spinal cord (cortical spinal tract; with electrical stimulation of the cortex): more robust labeling of the cortical spinal tract in the spinal cord
*T1CST [1, 2]: 1.43 ± 0.09 s
*T1CST ([1]; electrically stimulated rats): 1.24 ± 0.08 s
T1GM [1, 2]: 1.55 ± 0.05 s
T1GM ([1]; electrically stimulated rats): 1.54 ± 0.06 s
T1 in the cortical spinal tract shorter in electrically stimulated rats compared to controls ([1]; stimulated vs non-stimulated rats, both given MnCl2): about 20%
T1WM [1, 2]: 1.53 ± 0.06 s
T1WM ([1]; electrically stimulated rats): 1.51 ± 0.07 s
